# In the supplement of paper PMC10307832:
# Assays:
# Assay in all cases: relative viability (nuclei count vs DMSO), 5 days (fraction); higher = more cells survive
# NCI-H647 = test system: NCI-H647
# Procedure, shortened: (§1)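 Lung cancer cell lines in 1536-well plates were dosed by pin tool the day after seeding, either with one drug alone or with a fixed anchor-drug dose plus five library-drug doses (not always all listed) in √10 steps. After 5 days, cells were fixed and their nuclei stained in one step (final 0.05% Triton X-100, 1% formaldehyde, 1 ug/ml Hoechst), then counted on 4× images. Relative viability is the nuclei count in treated wells divided by that in vehicle wells. Values are medians of duplicate plates.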
# Calu-6 = test system: Calu-6
# Procedure, shortened: as §1
# IA-LM = test system: IA-LM
# Procedure, shortened: as §1
# A549 = test system: A549
# Procedure, shortened: as §1
# NCI-H2009 = test system: NCI-H2009
# Procedure, shortened: as §1
# NCI-H1299 = test system: NCI-H1299
# Procedure, shortened: as §1
# EBC-1 = test system: EBC-1
# Procedure, shortened: as §1
# LOU-NH91 = test system: LOU-NH91
# Procedure, shortened: as §1
# NCI-H1703 = test system: NCI-H1703
# Procedure, shortened: as §1
# NCI-H2405 = test system: NCI-H2405
# Procedure, shortened: as §1
smiles,measurement,setting,value
CN1CCN(CCOc2cc(OC3CCOCC3)c3c(Nc4c(Cl)ccc5c4OCO5)ncnc3c2)CC1 [Saracatinib] + C[C@]1(O)C[C@@H](c2nc(-c3ccc4ccc(-c5ccccc5)nc4c3)c3c(N)nccn32)C1 [Linsitinib] (partner 1 µM),relative viability,NCI-H647; first compound 0.02 µM,1.05
same,relative viability,NCI-H647; first compound 0.2 µM,0.943
same,relative viability,NCI-H647; first compound 0.6325 µM,1.14
same,relative viability,NCI-H647; first compound 2 µM,0.514
same,relative viability,Calu-6; first compound 0.02 µM,0.95
same,relative viability,Calu-6; first compound 0.2 µM,0.824
same,relative viability,Calu-6; first compound 0.6325 µM,0.906
same,relative viability,Calu-6; first compound 2 µM,0.68
same,relative viability,IA-LM; first compound 0.02 µM,0.682
same,relative viability,IA-LM; first compound 0.2 µM,0.838
same,relative viability,IA-LM; first compound 0.6325 µM,1.43
same,relative viability,IA-LM; first compound 2 µM,0.815
same,relative viability,A549; first compound 0.02 µM,0.564
same,relative viability,A549; first compound 0.2 µM,0.566
same,relative viability,A549; first compound 0.6325 µM,0.638
same,relative viability,A549; first compound 2 µM,0.357
same,relative viability,NCI-H2009; first compound 0.02 µM,1.19
same,relative viability,NCI-H2009; first compound 0.2 µM,1.04
same,relative viability,NCI-H2009; first compound 0.6325 µM,1.15
same,relative viability,NCI-H2009; first compound 2 µM,1.04
same,relative viability,NCI-H1299; first compound 0.02 µM,0.992
same,relative viability,NCI-H1299; first compound 0.2 µM,0.791
same,relative viability,NCI-H1299; first compound 0.6325 µM,0.979
same,relative viability,NCI-H1299; first compound 2 µM,0.655
same,relative viability,EBC-1; first compound 0.02 µM,0.94
same,relative viability,EBC-1; first compound 0.2 µM,0.771
same,relative viability,EBC-1; first compound 0.6325 µM,1.07
same,relative viability,EBC-1; first compound 2 µM,0.982
same,relative viability,LOU-NH91; first compound 0.02 µM,0.901
same,relative viability,LOU-NH91; first compound 0.2 µM,0.603
same,relative viability,LOU-NH91; first compound 0.6325 µM,0.594
same,relative viability,LOU-NH91; first compound 2 µM,0.518
same,relative viability,NCI-H1703; first compound 0.02 µM,1.02
same,relative viability,NCI-H1703; first compound 0.2 µM,0.738
same,relative viability,NCI-H1703; first compound 0.6325 µM,0.513
same,relative viability,NCI-H1703; first compound 2 µM,0.35
same,relative viability,NCI-H2405; first compound 0.02 µM,0.87
same,relative viability,NCI-H2405; first compound 0.2 µM,0.829
same,relative viability,NCI-H2405; first compound 0.6325 µM,0.466
same,relative viability,NCI-H2405; first compound 2 µM,0.372
Cc1csc(=NC2CCCCC2)n1/N=C/c1ccc(O)c(O)c1O [MIM1] + CS(=O)(=O)N1CCN(Cc2cc3nc(-c4cccc5[nH]ncc45)nc(N4CCOCC4)c3s2)CC1 [Pictilisib] (partner 1 µM),relative viability,NCI-H647; first compound 0.2 µM,0.379
same,relative viability,NCI-H647; first compound 0.6325 µM,0.578
same,relative viability,NCI-H647; first compound 6.325 µM,0.42
same,relative viability,NCI-H647; first compound 20 µM,0.191
same,relative viability,Calu-6; first compound 0.2 µM,0.909
same,relative viability,Calu-6; first compound 0.6325 µM,0.892
same,relative viability,Calu-6; first compound 2 µM,0.942
same,relative viability,Calu-6; first compound 6.325 µM,0.499
same,relative viability,Calu-6; first compound 20 µM,0.196
same,relative viability,IA-LM; first compound 0.2 µM,0.36
same,relative viability,IA-LM; first compound 0.6325 µM,0.328
same,relative viability,IA-LM; first compound 2 µM,0.261
same,relative viability,IA-LM; first compound 6.325 µM,0.18
same,relative viability,IA-LM; first compound 20 µM,0.0832
same,relative viability,A549; first compound 0.2 µM,0.508
same,relative viability,A549; first compound 0.6325 µM,0.565
same,relative viability,A549; first compound 2 µM,0.636
same,relative viability,A549; first compound 6.325 µM,0.15
same,relative viability,A549; first compound 20 µM,0.0858
same,relative viability,NCI-H2009; first compound 0.2 µM,0.931
same,relative viability,NCI-H2009; first compound 0.6325 µM,0.812
same,relative viability,NCI-H2009; first compound 2 µM,0.85
same,relative viability,NCI-H2009; first compound 6.325 µM,0.582
same,relative viability,NCI-H2009; first compound 20 µM,0.173
same,relative viability,NCI-H1299; first compound 0.2 µM,0.726
same,relative viability,NCI-H1299; first compound 0.6325 µM,0.791
same,relative viability,NCI-H1299; first compound 2 µM,0.765
same,relative viability,NCI-H1299; first compound 6.325 µM,0.535
same,relative viability,NCI-H1299; first compound 20 µM,0.354
same,relative viability,EBC-1; first compound 0.2 µM,0.352
same,relative viability,EBC-1; first compound 0.6325 µM,0.384
same,relative viability,EBC-1; first compound 2 µM,0.355
same,relative viability,EBC-1; first compound 6.325 µM,0.253
same,relative viability,EBC-1; first compound 20 µM,0.191
same,relative viability,LOU-NH91; first compound 0.2 µM,0.534
same,relative viability,LOU-NH91; first compound 0.6325 µM,0.524
same,relative viability,LOU-NH91; first compound 2 µM,0.47
same,relative viability,LOU-NH91; first compound 6.325 µM,0.506
same,relative viability,LOU-NH91; first compound 20 µM,0.382
same,relative viability,NCI-H1703; first compound 0.2 µM,0.219
same,relative viability,NCI-H1703; first compound 0.6325 µM,0.304
same,relative viability,NCI-H1703; first compound 2 µM,0.286
same,relative viability,NCI-H1703; first compound 6.325 µM,0.177
same,relative viability,NCI-H1703; first compound 20 µM,0.182
same,relative viability,NCI-H2405; first compound 0.2 µM,0.431
same,relative viability,NCI-H2405; first compound 0.6325 µM,0.52
same,relative viability,NCI-H2405; first compound 2 µM,0.506
same,relative viability,NCI-H2405; first compound 6.325 µM,0.418
same,relative viability,NCI-H2405; first compound 20 µM,0.546
